This is an account of results in patent US7772271B2 (priority 2004, dated 2010).

One may read the melting point as the temperature of the solid-liquid transition. Take `CC(C)(C)OC(=O)NS(=O)(=O)Nc1ccc(-c2c(C#N)c3ccc(N4CCOCC4)cc3n2C2CC2)cc1` [Compound 3175]: the melting point lay in the range of 171 to 175 °C.
Under `N#C/N=C(/Nc1ccc(-c2c(C#N)c3ccc(OC4CCOCC4)cc3n2C2CCC2)cc1)NC1CCCCC1` [Compound 3176] stands 209 to 211 °C.
Under `N#Cc1c(-c2ccc(Nc3nc(C(F)(F)F)cs3)cc2)n(C2CCC2)c2cc(OC3CCOCC3)ccc12` [Compound 3177] stands 250 to 252 °C.
Then `CC(C)n1c(-c2ccc(NS(=O)(=O)Cc3ccc(C(F)(F)F)cc3)cc2)c(C#N)c2ccc(OC(F)F)cc21` [Compound 3178], with 224 to 225 °C; and `CC(C)(C)c1csc(Nc2ccc(-c3c(C#N)c4ccc(Oc5ncccn5)cc4n3C3CCC3)cc2)n1` [Compound 3179], with 240 to 241 °C.
As for `CCCS(=O)(=O)Nc1ccc(-c2c(C#N)c3ccc(Oc4nccnc4C#N)cc3n2C2CCC2)cc1` [Compound 3181], the melting point fell in the range of 218 to 220 °C.
Under `CCS(=O)(=O)Nc1ccc(-c2c(C#N)c3ccc(OC4CCS(=O)(=O)CC4)cc3n2C2CCC2)cc1` [Compound 3184] stands 259 to 264 °C; under `N#Cc1c(-c2ccc(NS(=O)(=O)C3CC3)cc2)n(C2CCC2)c2cc(OC3CCS(=O)(=O)CC3)ccc12` [Compound 3185], 279 to 285 °C.
Under `C[C@@H](OC(=O)Nc1ccc(-c2c(C#N)c3ccc(OC4CCS(=O)(=O)CC4)cc3n2C2CCC2)cc1)C1CC1` [Compound 3186] stands 226 to 231 °C; under `C[C@@H](OC(=O)Nc1ccc(-c2c(C#N)c3ccc(OC4CCS(=O)(=O)CC4)cc3n2C2CCC2)cc1)C(F)(F)F` [Compound 3187], 243 to 249 °C; under `N#Cc1c(-c2ccc(N(CCF)c3nc(C(F)(F)F)cs3)cc2)n(C2CCC2)c2cc(OCCF)ccc12` [Compound 3188], 137 to 138 °C.
As to `N#Cc1c(-c2ccc(Nc3nc(C(F)(F)F)cs3)cc2)n(C2CCC2)c2cc(Oc3ncccn3)ccc12` [Compound 3189], the melting point is 241 to 245 °C.
Then `C[C@@H](OC(=O)Nc1ccc(-c2c(C#N)c3ccc(Oc4nccnc4C#N)cc3n2C2CCC2)cc1)C1CC1` [Compound 3191], with 227 to 229 °C.
Then `CCn1c(-c2ccc(N3CCCS3(=O)=O)cc2)c(C#N)c2ccc(Oc3nccnc3C#N)cc21` [Compound 3196], with 232 to 236 °C.
Then `CCCS(=O)(=O)Nc1ccc(-c2c(C#N)c3ccc(N4CCCC4=O)cc3n2C2CCC2)cc1` [Compound 3198], with 279 to 282 °C.
`C[C@@H](OC(=O)Nc1ccc(-c2c(C#N)c3ccc(OC4CCS(=O)(=O)CC4)cc3n2C2CC2)cc1)C1CC1` [Compound 3199] yielded a melting point of 205 to 210 °C.
Under `CCCS(=O)(=O)Nc1ccc(-c2c(C#N)c3ccc(Oc4ncccc4C(F)(F)F)cc3n2C2CCC2)cc1` [Compound 3201] stands 181 to 184 °C.
Then `CCCS(=O)(=O)Nc1ccc(-c2c(C#N)c3ccc(-c4cnccc4OC)cc3n2C2CCC2)cc1` [Compound 3202], with 240 to 242 °C; and `CCCS(=O)(=O)Nc1ccc(-c2c(C#N)c3ccc(-c4ccnn4C)cc3n2C2CCC2)cc1` [Compound 3203], with 241 to 242 °C; and `Cc1csc(Nc2ccc(-c3c(C#N)c4ccc(OCCF)cc4n3C3CCC3)cc2)n1` [Compound 3205], with 199 to 201 °C.
The compound `N#Cc1c(-c2ccc(Nc3nc(-c4ccc(F)cc4)cs3)cc2)n(C2CCC2)c2cc(OCCF)ccc12` [Compound 3206] gave a melting point of 234 to 236 °C.
Then `N#Cc1c(-c2ccc(Nc3nc(C(F)(F)F)cs3)cc2)n(C2CCC2)c2cc(OCCF)ccc12` [Compound 3207], with 116 to 118 °C.
Under `N#Cc1nccnc1Oc1ccc2c(C#N)c(-c3ccc(NS(=O)(=O)NCC4CC4)cc3)n(C3CC3)c2c1` [Compound 3211] stands 189 to 191 °C; under `CC(C)Nc1ccc(-c2c(C#N)c3ccc(Oc4nccnc4C#N)cc3n2C2CC2)cc1` [Compound 3212], 224 to 226 °C.
In turn, `CC(C)Nc1ccc(-c2c(C#N)c3ccc(Oc4ncccc4C#N)cc3n2C2CC2)cc1` [Compound 3213] showed a melting point of 195 to 197 °C.
`CC(C)n1c(-c2ccc(N3CCCCS3(=O)=O)cc2)c(C#N)c2ccc(N3CCOCC3)cc21` [Compound 3215] displayed a melting point of 260 to 271 °C.
Consider `N#Cc1c(-c2ccc(N3CCCCS3(=O)=O)cc2)n(C2CC2)c2cc(Oc3ncccn3)ccc12` [Compound 3216], for which the melting point was in the range of 251 to 256 °C.
For the compound `N#Cc1c(-c2ccc(N3CCCCS3(=O)=O)cc2)n(C2CCC2)c2cc(Oc3ncccn3)ccc12` [Compound 3217], the melting point was in the range of 212 to 223 °C.
Then `N#Cc1c(-c2ccc(N3CCCCS3(=O)=O)cc2)n(C2CCC2)c2cc(OC3CCOCC3)ccc12` [Compound 3218], with 180 to 187 °C; and `N#Cc1c(-c2ccc(N3CCCCS3(=O)=O)cc2)n(C2CCC2)c2cc(Oc3cnccn3)ccc12` [Compound 3220], with 187 to 196 °C.
Compound `CCOc1ccc2c(C#N)c(-c3ccc4c(c3)CCC(=O)N4)n(C3CCC3)c2c1` [Compound 3221] displayed a melting point of 249 to 250 °C.
With `CC1CCc2cc(-c3c(C#N)c4ccc(Oc5ncccn5)cc4n3C3CCC3)ccc2NC1=O` (centres unmarked) [Compound 3222], the melting point was in the range of 233 to 235 °C.
Then `CCn1c(-c2ccc(N3CCCCCC3=O)cc2)c(C#N)c2ccc(OC(C)C)cc21` [Compound 3223], with 250 to 251 °C.
`CCCS(=O)(=O)Nc1ccc(-c2c(C#N)c3ccc(Oc4nccnc4C#N)cc3n2CC2CC2)cc1` [Compound 3224] registered a melting point of 178 to 180 °C.
Turning to `CC(C)CS(=O)(=O)Nc1ccc(-c2c(C#N)c3ccc(Oc4nccnc4C#N)cc3n2CC2CC2)cc1` [Compound 3225], the melting point was in the range of 194 to 197 °C.
Under `CC(C)NC(=O)N(C(=O)NC(C)C)c1ccc(-c2c(C#N)c3ccc(-c4ccccn4)cc3n2C2CCC2)cc1` [Compound 3226] stands 193 to 194 °C; under `CCn1c(-c2ccc3c(c2)CCC(=O)N3)c(C#N)c2ccc(OC(C)C)cc21` [Compound 3227], 148 to 150 °C; under `CC(OC(=O)Nc1ccc(-c2c(C#N)c3ccc(OCCNS(C)(=O)=O)cc3n2C2CCC2)cc1)C1CC1` (centres unmarked) [Compound 3228], 92 to 95 °C.
Under `CCS(=O)(=O)NCCOc1ccc2c(C#N)c(-c3ccc(NC(=O)OC(C)C4CC4)cc3)n(C3CCC3)c2c1` (centres unmarked) [Compound 3229] stands 88 to 91 °C; under `CCn1c(-c2ccc(NC(=O)OC(C)C)cc2)c(C#N)c2ccc(OC3CCS(=O)(=O)CC3)cc21` [Compound 3230], 253 to 257 °C; under `CCn1c(-c2ccc(NC(=O)O[C@H](C)C3CC3)cc2)c(C#N)c2ccc(OC3CCS(=O)(=O)CC3)cc21` [Compound 3231], 189 to 196 °C.
Under `CC(C)OC(=O)Nc1ccc(-c2c(C#N)c3ccc(OC4CCS(=O)(=O)CC4)cc3n2C2CC2)cc1` [Compound 3232] stands 278 to 282 °C; under `C[C@@H](OC(=O)Nc1ccc(-c2c(C#N)c3ccc(OC4CCS(=O)(=O)CC4)cc3n2CC2CC2)cc1)C1CC1` [Compound 3233], 193 to 198 °C; under `CC(C)n1c(-c2ccc(NC(=O)O[C@H](C)C3CC3)cc2)c(C#N)c2ccc(OC3CCS(=O)(=O)CC3)cc21` [Compound 3235], 249 to 256 °C.
Compound `CC(C)OC(=O)Nc1ccc(-c2c(C#N)c3ccc(OC4CCS(=O)(=O)CC4)cc3n2C(C)C)cc1` [Compound 3236] gave a melting point of 173 to 190 °C.
For `N#Cc1nccnc1Oc1ccc2c(C#N)c(-c3ccc(NS(=O)(=O)CC4CCC4)cc3)n(CC3CC3)c2c1` [Compound 3238], the melting point lay within 205 to 208 °C.
Under `N#Cc1nccnc1Oc1ccc2c(C#N)c(-c3ccc(NS(=O)(=O)C4CC4)cc3)n(CC3CC3)c2c1` [Compound 3239] stands 193 to 196 °C; under `N#Cc1c(-c2ccc(NCCCc3ccccc3)cc2)n(C2CCC2)c2cc(OCCF)ccc12` [Compound 3240], 121 to 124 °C.
Under `N#Cc1c(-c2ccc(NCC3CCCCC3)cc2)n(C2CCC2)c2cc(OCCF)ccc12` [Compound 3241] stands 169 to 173 °C.
Turning to `C[C@@H](OC(=O)Nc1ccc(-c2c(C#N)c3ccc(-c4ncccc4C#N)cc3n2C2CCC2)cc1)C1CC1` [Compound 3243], the melting point is 183 to 185 °C.
Under `CCCS(=O)(=O)Nc1ccc(-c2c(C#N)c3ccc(-c4ncccc4C#N)cc3n2C2CCC2)cc1` [Compound 3244] stands 223 to 225 °C; under `C[C@@H](OC(=O)Nc1ccc(-c2c(C#N)c3ccc(OC4CCS(=O)(=O)CC4)cc3n2C2CCCC2)cc1)C1CC1` [Compound 3245], 243 to 250 °C; under `CC(C)OC(=O)Nc1ccc(-c2c(C#N)c3ccc(OC4CCS(=O)(=O)CC4)cc3n2C2CCCC2)cc1` [Compound 3246], 223 to 227 °C.
In turn, `C[C@@H](OC(=O)Nc1ccc(-c2c(C#N)c3ccc(-c4ncccc4[N+](=O)[O-])cc3n2C2CCC2)cc1)C1CC1` [Compound 3247] came in with a melting point of 199 to 201 °C.
`CCCS(=O)(=O)Nc1ccc(-c2c(C#N)c3ccc(Oc4nccnc4C#N)cc3n2CC2CC2)c(C)c1` [Compound 3248] gave a melting point of 238 to 241 °C.
Then `CCCS(=O)(=O)Nc1ccc(-c2c(C#N)c3ccc(Oc4ncccc4C#N)cc3n2CC2CC2)c(C)c1` [Compound 3249], with 235 to 239 °C; and `CCCS(=O)(=O)Nc1ccc(-c2c(C#N)c3ccc(Oc4ncccc4C#N)cc3n2CC2CC2)cc1` [Compound 3250], with 232 to 235 °C; and `N#Cc1c(-c2ccc(Nc3ncccn3)cc2)n(CC2CC2)c2cc(OCCF)ccc12` [Compound 3251], with 212 to 213 °C.
In the case of `CCOc1ccc2c(C#N)c(-c3ccc(Nc4ncccn4)cc3)n(CC3CC3)c2c1` [Compound 3252], the melting point fell in the range of 223 to 224 °C.
